Source: patent publication US10085448B2, “Azoline compounds substituted by a carbocyclic condensed ring system” (BASF SE, priority 2014, dated 2018)
Like-named read-outs stand apart in the source and are kept apart here.

Experiments:
Type in all cases: in vivo
[1] = tested on: Neotropical Brown Stink Bug (Euschistus heros); assay: Neotropical brown stink bug soybean pod spray test; settings: 120 h, adults on soybean pods, sprayed, after 5 days, read-out: mortality in comparison with untreated controls
Experimental: B.12 Neotropical Brown Stink Bug (Euschistus heros)
(§1) The active compound was dissolved at the desired concentration in a mixture of 1:1 (vol:vol) distilled water: acetone. Surfactant (Kinetic HV) was added at a rate of 0.01% (vol/vol).The test solution was prepared at the day of use.
Soybean pods were placed in microwavable plastic cups and inoculated with ten adult stage E. heros. Using a hand atomizer, approximately 1 ml solution is sprayed into each cup, insects and food present. A water source was provided (cotton wick with water). Each treatment was replicated 2-fold. Assay arenas were kept at about 25° C. Percent mortality was recorded after 5 days.

[2] = tested on: Orchid Thrips (Dichromothrips corbetti); assay: Orchid thrips floral-immersion test; settings: 72 h, read-out: mortality in comparison with untreated controls
Experimental: B.7 Orchid Thrips (Dichromothrips corbetti)
Dichromothrips corbetti adults used for bioassay were obtained from a colony maintained continuously under laboratory conditions. For testing purposes, the test compound is diluted in a 1:1 mixture of acetone:water (vol:vol), plus Kinetic HV at a rate of 0.01% v/v.
Thrips potency of each compound was evaluated by using a floral-immersion technique. All petals of individual, intact orchid flowers were dipped into treatment solution and allowed to dry in Petri dishes. Treated petals were placed into individual re-sealable plastic along with about 20 adult thrips. All test arenas were held under continuous light and a temperature of about 28° C. for duration of the assay. After 3 days, the numbers of live thrips were counted on each petal. The percent mortality was recorded 72 hours after treatment.

[3] = tested on: Vetch Aphid (Megoura viciae); assay: Vetch aphid leaf disk test; settings: foliar, 120 h, read-out: mortality in comparison with untreated controls
Experimental: B.3 Vetch Aphid (Megoura viciae)
For evaluating control of vetch aphid (Megoura viciae) through contact or systemic means the test unit consisted of 24-well-microtiter plates containing broad bean leaf disks.
The compounds were formulated using a solution containing 75% v/v water and 25% v/v DMSO. Different concentrations of formulated compounds were sprayed onto the leaf disks at 2.5 μl, using a custom built micro atomizer, at two replications.
After application, the leaf disks were air-dried and 5-8 adult aphids placed on the leaf disks inside the microtiter plate wells. The aphids were then allowed to suck on the treated leaf disks and incubated at about 23±1° C. and about 50±5% relative humidity for 5 days. Aphid mortality and fecundity was then visually assessed.

[4] = tested on: Green Soldier Stink Bug (Nezara viridula); assay: Green soldier stink bug soybean pod spray test; settings: 120 h, read-out: mortality in comparison with untreated controls
Experimental: B.11 Green Soldier Stink Bug (Nezara viridula)
as §1
Soybean pods were placed in glass Petri dishes lined with moist filter paper and inoculated with ten late 3rd instar N. viridula. Using a hand atomizer, approximately 2 ml solution is sprayed into each Petri dish. Assay arenas were kept at about 25° C. Percent mortality was recorded after 5 days.

[5] = tested on: Tobacco Budworm (Heliothis virescens); assay: Tobacco budworm insect diet test; settings: 120 h, read-out: mortality in comparison with untreated controls
Experimental: B.4 Tobacco Budworm (Heliothis virescens)
For evaluating control of tobacco budworm (Heliothis virescens) the test unit consisted of 96-well-microtiter plates containing an insect diet and 15-25 H. virescens eggs.
(§2) The compounds were formulated using a solution containing 75% v/v water and 25% v/v DMSO. Different concentrations of formulated compounds were sprayed onto the insect diet at 10 μl, using a custom built micro atomizer, at two replications.
(§3) After application, microtiter plates were incubated at about 28±1° C. and about 80±5% relative humidity for 5 days. Egg and larval mortality was then visually assessed.

[6] = tested on: Mediterranean Fruitfly (Ceratitis capitata); assay: Mediterranean fruitfly insect diet test; settings: 120 h, read-out: mortality in comparison with untreated controls
Experimental: B.6 Mediterranean Fruitfly (Ceratitis capitata)
as §2, with “For evaluating control of Mediterranean fruitfly (Ceratitis capitata) the test unit consisted of microtiter plates containing an insect diet and 50-80 C. capitata eggs. The” for “The”, “5” for “10”
as §3

[7] = tested on: Green Peach Aphid (Myzus persicae); assay: Green peach aphid systemic artificial diet test; settings: 72 h, read-out: mortality in comparison with untreated controls
Excerpt: B.2 Green Peach Aphid (Myzus persicae)
For evaluating control of green peach aphid (Myzus persicae) through systemic means the test unit consisted of 96-well-microtiter plates containing liquid artificial diet under an artificial membrane.
The compounds were formulated using a solution containing 75% v/v water and 25% v/v DMSO. Different concentrations of formulated compounds were pipetted into the aphid diet, using a custom built pipetter, at two replications.
After application, 5-8 adult aphids were placed on the artificial membrane inside the microtiter plate wells. The aphids were then allowed to suck on the treated aphid diet and incubated at about 23±1° C. and about 50±5% relative humidity for 3 days. Aphid mortality and fecundity was then visually assessed.

[8] = tested on: Southern Armyworm (Spodoptera eridania); assay: Southern armyworm sprayed lima bean test; settings: 96 h, read-out: mortality in comparison with untreated controls
Experimental: B.10 Southern Armyworm (Spodoptera eridania)
The active compounds were formulated in cyclohexanone as a 10,000 ppm solution supplied in tubes. The tubes were inserted into an automated electrostatic sprayer equipped with an atomizing nozzle and they served as stock solutions for which lower dilutions were made in 50% acetone:50% water (v/v). A nonionic surfactant (Kinetic®) was included in the solution at a volume of 0.01% (v/v).
Lima bean plants (variety Sieva) were grown 2 plants to a pot and selected for treatment at the 1st true leaf stage. Test solutions were sprayed onto the foliage by an automated electrostatic plant sprayer equipped with an atomizing spray nozzle. The plants were dried in the sprayer fume hood and then removed from the sprayer. Each pot was placed into perforated plastic bags with a zip closure. About 10 to 11 armyworm larvae were placed into the bag and the bags zipped closed. Test plants were maintained in a growth room at about 25° C. and about 20-40% relative humidity for 4 days, avoiding direct exposure to fluorescent light (24 hour photoperiod) to prevent trapping of heat inside the bags. Mortality and reduced feeding were assessed 4 days after treatment, compared to untreated control plants.

[9] = tested on: Diamond Back Moth (Plutella xylostella); assay: Diamond back moth leaf-dip test; settings: read-out: mortality in comparison with untreated controls
Experimental: B.1 Diamond Back Moth (Plutella xylostella)
The active compound was dissolved at the desired concentration in a mixture of 1:1 (vol:vol) distilled water: aceteone. Surfactant (Kinetic HV) was added at a rate of 0.01% (vol/vol).The test solution was prepared at the day of use.
Leaves of cabbage were dipped in test solution and air-dried. Treated leaves were placed in petri dishes lined with moist filter paper and inoculated with ten 3rd instar larvae. Mortality was recorded 72 hours after treatment. Feeding damages were also recorded using a scale of 0-100%.

[10] = tested on: Rice Green Leafhopper (Nephotettix virescens); assay: Rice green leafhopper sprayed rice seedling test; settings: 72 h, read-out: mortality in comparison with untreated controls
Experimental: B.8 Rice Green Leafhopper (Nephotettix virescens)
Rice seedlings were cleaned and washed 24 hours before spraying. The active compounds were formulated in 1:1 acetone:water (vol:vol), and 0.01% vol/vol surfactant (Kinetic HV) was added. Potted rice seedlings were sprayed with 5-6 ml test solution, air dried, covered with Mylar cages and inoculated with 10 adults. Treated rice plants were kept at about 28-29° C. and relative humidity of about 50-60%. Percent mortality was recorded after 72 hours.

[11] = tested on: Red Spider Mite (Tetranychus kanzawai); assay: Red spider mite sprayed cowpea bean test; settings: 72 h, read-out: mortality in comparison with untreated controls
Experimental: B.9 Red Spider Mite (Tetranychus kanzawai)
The active compound was dissolved at the desired concentration in a mixture of 1:1 (vol:vol) distilled water: acetone. Add surfactant (Kinetic HV) was added at a rate of 0.01% (vol/vol).The test solution was prepared at the day of use.
Potted cowpea beans of 4-5 days of age were cleaned with tap water and sprayed with 1-2 ml of the test solution using air driven hand atomizer. The treated plants were allowed to air dry and afterwards inoculated with 30 or more mites by clipping a cassava leaf section from rearing population. Treated plants were placed inside a holding room at about 25-27° C. and about 50-60% relative humidity. Percent mortality was assessed 72 hours after treatment.

[12] = tested on: Boll Weevil (Anthonomus grandis); assay: Boll weevil insect diet test; settings: 120 h, read-out: mortality in comparison with untreated controls
Experimental: B.5 Boll Weevil (Anthonomus grandis)
For evaluating control of boll weevil (Anthonomus grandis) the test unit consisted of 96-well-microtiter plates containing an insect diet and 5-10 A. grandis eggs.
The compounds were formulated using a solution containing 75% v/v water and 25% v/v DMSO. Different concentrations of formulated compounds were sprayed onto the insect diet at 5 μl, using a custom built micro atomizer, at two replications.
After application, microtiter plates were incubated at about 25±1° C. and about 75±5% relative humidity for 5 days. Egg and larval mortality was then visually assessed.

[13] = 2500 ppm, egg and larval mortality on sprayed insect diet, 5 days

CC(=O)NCc1ccc(C2=NOC(c3cc(Cl)c(F)c(Cl)c3)(C(F)(F)F)C2)c2c1CCC2 (stereo not drawn) [Compound 1-4, N-[[7-[5-(3,5-Dichloro-4-fluoro-phenyl)-5-(trifluoromethyl)-4H-isoxazol-3-yl]indan-4-yl]methyl]acetamide]
≥ 75%: mortality at 100 ppm [1] | mortality at 300 ppm [2] | mortality at 2500 ppm [3] | mortality at 300 ppm [4] | mortality at 2500 ppm [5] | mortality at 2500 ppm [6] | mortality at 2500 ppm [7] | mortality at 10 ppm [8] | mortality at 300 ppm ([9]; in Brassica oleracea, 72 h) | mortality at 300 ppm [10] | mortality at 300 ppm [11] | mortality at 2500 ppm [12]

O=C(NCC(F)(F)F)N/N=C/c1ccc(C2=NOC(c3cc(Cl)c(F)c(Cl)c3)(C(F)(F)F)C2)c2c1CCC2 (stereo not drawn) [Compound 2-3, 1-[(E)-[7-[5-(3,5-Dichloro-4-fluoro-phenyl)-5-(trifluoromethyl)-4H-isoxazol-3-yl]indan-4-yl]methyleneamino]-3-(2,2,2-trifluoroethyl)urea]
≥ 75%: mortality at 300 ppm [2] | mortality at 2500 ppm [3] | mortality at 2500 ppm [5] | mortality at 2500 ppm [6] | mortality at 2500 ppm [7] | mortality at 300 ppm ([9]; in Brassica oleracea, 72 h) | mortality at 300 ppm [11] | mortality at 2500 ppm [12]

O=C(NCC(F)(F)F)N/N=C/c1ccc(C2=NCC(c3cc(Cl)cc(Cl)c3)(C(F)(F)F)C2)c2c1CCC2 (stereo not drawn) [Compound 3-1, 1-[(E)-[7-[3-(3,5-Dichlorophenyl)-3-(trifluoromethyl)-2,4-dihydropyrrol-5-yl]indan-4-yl]methyleneamino]-3-(2,2,2-trifluoroethyl)urea]
≥ 75%: mortality at 2500 ppm ([3]; 2500 ppm, adult aphids on sprayed broad bean leaf disks, 5 days) | mortality at 2500 ppm [5, 13] | mortality at 2500 ppm [6, 13] | mortality at 2500 ppm ([7]; 2500 ppm, adult aphids on treated artificial diet, 3 days) | mortality at 10 ppm ([8]; 10 ppm, larvae on sprayed lima bean plants, 4 days after treatment) | mortality at 300 ppm ([9]; 300 ppm, cabbage leaves dipped, 3rd instar larvae, 72 hours after treatment) | mortality at 2500 ppm [12, 13]

Fc1c(Cl)cc(C2(C(F)(F)F)CC(c3ccc(-n4cncn4)c4c3CCC4)=NO2)cc1Cl (stereo not drawn) [Compound 4-1, 5-(3,5-Dichloro-4-fluoro-phenyl)-3-[7-(1,2,4-triazol-1-yl)indan-4-yl]-5-(trifluoromethyl)-4H-isoxazole]
≥ 75%: mortality at 300 ppm [2] | mortality at 300 ppm ([9]; in Brassica oleracea, 72 h) | mortality at 300 ppm [10]
